Laboratory results published in the NIST ThermoML archive (doi:10.1016/j.tca.2017.06.023).
± gives the expanded uncertainty stated by the source.

Columns and labels:
[1] = xn = mol fraction of the nth substance listed; conditions: 100 kPa, Liquid; for viscosity: Capillary tube (Ostwald / Ubbelohde) method; for speed of sound: Frequency=3 MHz, Sing-around technique in a fixed-path interferometer; for mass density: Vibrating tube method
[2] = refractive index (Na D-line) (dimensionless); xn = mol fraction of the nth substance listed; conditions: 100 kPa, Liquid, Standard Abbe refractometry

CC(=O)N(C)C [N,N-dimethylethanamide] + CC(C)O
Conditions	mass density, [1] [kg/m3]	refractive index, [2]	speed of sound, [1] [m/s]	viscosity, [1] [mPa·s]
283.15 K, x1 = 0.0551	803.7 ± 0.24	1.38572 ± 0.00032	1214.1 ± 1.2	2.752 ± 0.057
283.15 K, x1 = 0.1091	813.5 ± 0.24	1.38973 ± 0.00032	1234.9 ± 1.2	2.354 ± 0.049
283.15 K, x1 = 0.2113	831.42 ± 0.23	1.39698 ± 0.00032	1271.8 ± 1.2	1.896 ± 0.039
283.15 K, x1 = 0.3066	847.5 ± 0.23	1.40342 ± 0.00032	1303.6 ± 1.2	1.643 ± 0.034
283.15 K, x1 = 0.4084	864.09 ± 0.22	1.40997 ± 0.00032	1336.4 ± 1.2	1.476 ± 0.031
283.15 K, x1 = 0.5049	879.33 ± 0.22	1.4159 ± 0.00032	1366.7 ± 1.2	1.392 ± 0.029
283.15 K, x1 = 0.6056	894.73 ± 0.22	1.42182 ± 0.00032	1398.1 ± 1.2	1.305 ± 0.027
283.15 K, x1 = 0.7028	909.13 ± 0.22	1.42729 ± 0.00032	1427.9 ± 1.2	1.272 ± 0.026
283.15 K, x1 = 0.8024	923.39 ± 0.21	1.43267 ± 0.00031	1458.5 ± 1.2	1.246 ± 0.026
283.15 K, x1 = 0.8956	936.27 ± 0.21	1.43751 ± 0.00031	1486.3 ± 1.2	1.213 ± 0.025
283.15 K, x1 = 0.9464	943.08 ± 0.21	1.44007 ± 0.00031	1501.5 ± 1.2	1.205 ± 0.025
283.15 K, x1 = 1	950.13 ± 0.21	1.44273 ± 0.00031	1516.8 ± 1.2	1.168 ± 0.024
298.15 K, x1 = 0.0551	791.24 ± 0.24	1.37924 ± 0.00032	1160.6 ± 1.2	1.793 ± 0.037
298.15 K, x1 = 0.1091	800.93 ± 0.24	1.38322 ± 0.00032	1180.6 ± 1.2	1.598 ± 0.033
298.15 K, x1 = 0.2113	818.64 ± 0.23	1.39042 ± 0.00032	1215.9 ± 1.2	1.355 ± 0.028
298.15 K, x1 = 0.3066	834.52 ± 0.23	1.3968 ± 0.00032	1247.4 ± 1.2	1.214 ± 0.025
298.15 K, x1 = 0.4084	850.94 ± 0.23	1.40331 ± 0.00032	1279.7 ± 1.2	1.117 ± 0.023
298.15 K, x1 = 0.5049	866.02 ± 0.22	1.40919 ± 0.00032	1309.3 ± 1.2	1.057 ± 0.022
298.15 K, x1 = 0.6056	881.3 ± 0.22	1.41506 ± 0.00032	1338.8 ± 1.2	1.017 ± 0.021
298.15 K, x1 = 0.7028	895.59 ± 0.22	1.42049 ± 0.00032	1369.3 ± 1.2	0.993 ± 0.021
298.15 K, x1 = 0.8024	909.75 ± 0.21	1.42581 ± 0.00031	1399.3 ± 1.2	0.977 ± 0.02
298.15 K, x1 = 0.8956	922.53 ± 0.21	1.43061 ± 0.00031	1426.5 ± 1.2	0.956 ± 0.02
298.15 K, x1 = 0.9464	929.3 ± 0.21	1.43317 ± 0.00031	1441.3 ± 1.2	0.949 ± 0.02
298.15 K, x1 = 1	936.29 ± 0.21	1.43579 ± 0.00031	1453.7 ± 1.2	0.93 ± 0.019
313.15 K, x1 = 0.0551	778.1 ± 0.24	1.37249 ± 0.00032	1107.6 ± 1.2	1.223 ± 0.026
313.15 K, x1 = 0.1091	787.72 ± 0.24	1.37646 ± 0.00032	1127.3 ± 1.2	1.129 ± 0.024
313.15 K, x1 = 0.2113	805.29 ± 0.24	1.38365 ± 0.00032	1162.2 ± 1.2	1.008 ± 0.021
313.15 K, x1 = 0.3066	821.08 ± 0.23	1.39004 ± 0.00032	1193.5 ± 1.2	0.933 ± 0.02
313.15 K, x1 = 0.4084	837.39 ± 0.23	1.39653 ± 0.00032	1225.2 ± 1.2	0.879 ± 0.018
313.15 K, x1 = 0.5049	852.41 ± 0.23	1.40242 ± 0.00032	1254.2 ± 1.2	0.849 ± 0.018
313.15 K, x1 = 0.6056	867.62 ± 0.22	1.40827 ± 0.00032	1282.9 ± 1.2	0.828 ± 0.017
313.15 K, x1 = 0.7028	881.85 ± 0.22	1.4137 ± 0.00032	1313.2 ± 1.2	0.809 ± 0.017
313.15 K, x1 = 0.8024	895.96 ± 0.22	1.41903 ± 0.00031	1342.1 ± 1.2	0.795 ± 0.017
313.15 K, x1 = 0.8956	908.71 ± 0.21	1.42383 ± 0.00031	1368.5 ± 1.2	0.779 ± 0.016
313.15 K, x1 = 0.9464	915.46 ± 0.21	1.42638 ± 0.00031	1382.5 ± 1.2	0.772 ± 0.016
313.15 K, x1 = 1	922.43 ± 0.21	1.42901 ± 0.00031	1393.3 ± 1.2	0.764 ± 0.016

CC(=O)N(C)C [N,N-dimethylethanamide] + CCC(C)O
Conditions	mass density, [1] [kg/m3]	refractive index, [2]	speed of sound, [1] [m/s]	viscosity, [1] [mPa·s]
283.15 K, x1 = 0.062	823.15 ± 0.24	1.40382 ± 0.00032	1280.8 ± 1.3	4.37 ± 0.091
283.15 K, x1 = 0.0926	827.08 ± 0.23	1.40505 ± 0.00032	1288 ± 1.3	3.888 ± 0.081
283.15 K, x1 = 0.2101	842.13 ± 0.23	1.4098 ± 0.00032	1314.5 ± 1.2	2.795 ± 0.058
283.15 K, x1 = 0.3084	854.75 ± 0.23	1.41377 ± 0.00032	1337 ± 1.2	2.363 ± 0.049
283.15 K, x1 = 0.4084	867.81 ± 0.22	1.41785 ± 0.00032	1360.1 ± 1.2	2.043 ± 0.042
283.15 K, x1 = 0.5009	880.22 ± 0.22	1.42168 ± 0.00032	1382.3 ± 1.2	1.833 ± 0.038
283.15 K, x1 = 0.6002	893.87 ± 0.22	1.42583 ± 0.00032	1407.2 ± 1.2	1.662 ± 0.035
283.15 K, x1 = 0.7001	907.96 ± 0.22	1.43002 ± 0.00032	1433 ± 1.2	1.518 ± 0.032
283.15 K, x1 = 0.8035	922.69 ± 0.21	1.43437 ± 0.00031	1461.3 ± 1.2	1.418 ± 0.029
283.15 K, x1 = 0.9004	936.39 ± 0.21	1.43847 ± 0.00031	1488.8 ± 1.2	1.318 ± 0.027
283.15 K, x1 = 0.9572	944.31 ± 0.21	1.44089 ± 0.00031	1505 ± 1.2	1.258 ± 0.026
283.15 K, x1 = 1	950.13 ± 0.21	1.44273 ± 0.00031	1516.8 ± 1.2	1.168 ± 0.024
298.15 K, x1 = 0.062	810.77 ± 0.24	1.39766 ± 0.00032	1226.5 ± 1.2	2.545 ± 0.053
298.15 K, x1 = 0.0926	814.69 ± 0.24	1.39889 ± 0.00032	1233.5 ± 1.2	2.345 ± 0.049
298.15 K, x1 = 0.2101	829.59 ± 0.23	1.40356 ± 0.00032	1259.8 ± 1.2	1.839 ± 0.038
298.15 K, x1 = 0.3084	842.09 ± 0.23	1.40746 ± 0.00032	1281.4 ± 1.2	1.593 ± 0.033
298.15 K, x1 = 0.4084	855.06 ± 0.23	1.41148 ± 0.00032	1303.8 ± 1.2	1.427 ± 0.03
298.15 K, x1 = 0.5009	867.31 ± 0.22	1.41524 ± 0.00032	1324.9 ± 1.2	1.316 ± 0.027
298.15 K, x1 = 0.6002	880.82 ± 0.22	1.41929 ± 0.00032	1349 ± 1.2	1.233 ± 0.026
298.15 K, x1 = 0.7001	894.7 ± 0.22	1.42339 ± 0.00032	1374.8 ± 1.2	1.151 ± 0.024
298.15 K, x1 = 0.8035	909.23 ± 0.21	1.42765 ± 0.00031	1402.4 ± 1.2	1.066 ± 0.022
298.15 K, x1 = 0.9004	922.74 ± 0.21	1.43165 ± 0.00031	1428.8 ± 1.2	1.02 ± 0.021
298.15 K, x1 = 0.9572	930.54 ± 0.21	1.43402 ± 0.00031	1443.3 ± 1.2	0.967 ± 0.02
298.15 K, x1 = 1	936.29 ± 0.21	1.43579 ± 0.00031	1453.7 ± 1.2	0.93 ± 0.019
313.15 K, x1 = 0.062	797.87 ± 0.24	1.39127 ± 0.00032	1172.2 ± 1.2	1.587 ± 0.033
313.15 K, x1 = 0.0926	801.76 ± 0.24	1.39248 ± 0.00032	1179.1 ± 1.2	1.501 ± 0.031
313.15 K, x1 = 0.2101	816.61 ± 0.23	1.39714 ± 0.00032	1205 ± 1.2	1.274 ± 0.027
313.15 K, x1 = 0.3084	829.07 ± 0.23	1.40103 ± 0.00032	1226.2 ± 1.2	1.146 ± 0.024
313.15 K, x1 = 0.4084	841.93 ± 0.23	1.40501 ± 0.00032	1247.8 ± 1.2	1.048 ± 0.022
313.15 K, x1 = 0.5009	854.12 ± 0.22	1.40873 ± 0.00032	1268.8 ± 1.2	0.979 ± 0.02
313.15 K, x1 = 0.6002	867.53 ± 0.22	1.41274 ± 0.00032	1292.5 ± 1.2	0.927 ± 0.019
313.15 K, x1 = 0.7001	881.27 ± 0.22	1.4168 ± 0.00032	1317.7 ± 1.2	0.888 ± 0.019
313.15 K, x1 = 0.8035	895.63 ± 0.22	1.42098 ± 0.00031	1345.2 ± 1.2	0.857 ± 0.018
313.15 K, x1 = 0.9004	909.02 ± 0.21	1.42492 ± 0.00031	1370.2 ± 1.2	0.819 ± 0.017
313.15 K, x1 = 0.9572	916.72 ± 0.21	1.42725 ± 0.00031	1384 ± 1.2	0.791 ± 0.017
313.15 K, x1 = 1	922.43 ± 0.21	1.42901 ± 0.00031	1393.3 ± 1.2	0.764 ± 0.016
